Key:
[1] = system: Plasmodium falciparum; test: Antiplasmodial activity against chloroquine-resistant Plasmodium falciparum INDO assessed as growth inhibition by SYBER green 1 dye based fluorescence assay; assay type: functional, organism-based
[2] = system: HepG2; test: Anticancer activity against human HepG2 cells assessed as cell growth inhibition measured for 72 hrs by MTT assay; assay type: functional, cell-based; conditions: HepG2, 72 h
[3] = Selectivity ratio of IC50 for anticancer activity against human BEAS-2B cells to IC50 for anticancer activity against human A549 cells; assay type: toxicity, cell-based; conditions: BEAS-2B cells versus A549 cells, read-out: Ratio IC50
[4] = Selectivity ratio of IC50 for anticancer activity against human L02 cells to IC50 for anticancer activity against human HepG2 cells; assay type: toxicity, cell-based; conditions: L02 cells versus HepG2 cells, read-out: Ratio IC50
[5] = system: A549; test: Anticancer activity against human A549 cells assessed as cell growth inhibition measured for 72 hrs by MTT assay; assay type: functional, cell-based; conditions: A549, 72 h
[6] = system: L02; test: Anticancer activity against human L02 cells assessed as cell growth inhibition measured for 72 hrs by MTT assay; assay type: functional, cell-based; conditions: L02, 72 h
[7] = system: BEAS-2B; test: Anticancer activity against human BEAS-2B cells assessed as cell growth inhibition measured for 72 hrs by MTT assay; assay type: functional, cell-based
[8] = Cytotoxicity against human HEK293 cells assessed as cell viability measured for 24 hrs by MTT assay; assay type: cell-based
[9] = Selectivity index, ratio of CC50 for human HEK293 cells to IC50 for antiplasmodial activity against chloroquine-resistant Plasmodium falciparum INDO; assay type: toxicity; conditions: HEK293 cells versus Plasmodium falciparum INDO
[10] = system: Plasmodium falciparum; test: Antiplasmodial activity against artemisinin-resistant Plasmodium falciparum Cam 3.1 R539 assessed as growth inhibition by SYBER green 1 dye based fluorescence assay; assay type: functional, organism-based
[11] = system: Plasmodium falciparum; test: Resistance index, ratio of IC50 for antiplasmodial activity against artemisinin-resistant Plasmodium falciparum Cam 3.1 R539 to IC50 for antiplasmodial activity against chloroquine-resistant Plasmodium falciparum INDO; assay type: functional

Structure (SMILES) | IC50 [1] | IC50 [2] | selectivity ratio [3] | selectivity ratio [4] | IC50 [5] | IC50 [6] | IC50 [7] | CC50 at 24 h [8] | selectivity ratio [9] | IC50 [10] | Ratio IC50 [11]
C=C(c1ccc(Cl)cc1Cl)C1COC(C)(C)OO1 (configuration not stated) | > 0.1 µM | 90.5 µM | 0.74 | 0.16 | 92.6 µM | 37.7 µM | 68.6 µM |  |  |  | 
C=C(c1ccc(F)cc1F)C1COC2(CCCC2)OO1 (configuration not stated) | > 0.1 µM | 15.4 µM | 12.3 | 1.14 | 5.09 µM | 17.6 µM | 62.6 µM |  |  |  | 
CC(=O)O[C@H]1C(=O)[C@@]2(C)[C@H]([C@H](OC(=O)c3ccccc3)[C@]3(O)C[C@H](OC(=O)[C@H](O)[C@@H](NC(=O)c4ccccc4)c4ccccc4)C(C)=C1C3(C)C)[C@]1(OC(C)=O)CO[C@@H]1C[C@@H]2O [PACLITAXEL] |  | 0.19 µM |  |  |  | < 0.1 µM | < 0.1 µM |  |  |  | 
C=C(c1ccc(Cl)c(Cl)c1Cl)C1COC(C)(C)OO1 (configuration not stated) | > 0.1 µM | 27.3 µM | 0.19 | 0.14 | 52.1 µM | 18.1 µM | 10.2 µM |  |  |  | 
C=C(c1cc(Cl)cc(Cl)c1OCc1ccccc1)C1COC2(CCCC2)OO1 (configuration not stated) | 0.0316 µM | 13.7 µM | 0.43 | 0.19 | 2.07 µM | 65.6 µM | 28.6 µM | 2.26 µM | 72.9 |  | 
C=C(c1ccc(OC)c(F)c1)C1COC(C)(C)OO1 (configuration not stated) | > 0.1 µM | > 100 µM |  | 0.37 | 100 µM | > 100 µM | 68.7 µM |  |  |  | 
C=C(c1ccc(F)c(F)c1)C1COC2(CCCCC2)OO1 (configuration not stated) | > 0.1 µM | 28.6 µM | 1.26 | 0.22 | 7.88 µM | 16.5 µM | 61.2 µM |  |  |  | 
C=C(c1ccc(F)cc1F)C1COC(C)(C)OO1 (configuration not stated) | > 0.1 µM | > 100 µM |  |  | > 100 µM | > 100 µM | > 100 µM |  |  |  | 
C=C(c1ccc(F)cc1F)C1COC2(OO1)C1CC3CC(C1)CC2C3 (configuration not stated) | > 0.1 µM | 65.6 µM | 10.5 | 0.16 | 4.43 µM | 10.9 µM | 46.4 µM |  |  |  | 
C=C(c1ccc(F)c(F)c1)C1COC(C)(C)OO1 (configuration not stated) | > 0.1 µM | > 100 µM |  |  | > 100 µM | > 100 µM | > 100 µM |  |  |  | 
C=C(c1ccc(F)c(F)c1)C1COC2(OO1)C1CC3CC(C1)CC2C3 (configuration not stated) | 0.0123 µM | 26.1 µM | 6.29 | 0.48 | 4.97 µM | 9.48 µM | 57.1 µM | 12.6 µM | 1050 | 0.0414 µM | 3.39
C=C(c1ccc(Cl)c(Cl)c1)C1COC2(OO1)C1CC3CC(C1)CC2C3 (configuration not stated) | 0.0224 µM | 34.3 µM | 9.11 | 0.5 | 2.93 µM | 3.36 µM | 26.7 µM | 13.2 µM | 599 | 0.05 µM | 2.24
C=C(c1ccc(Cl)c(Cl)c1Cl)C1COC2(OO1)C1CC3CC(C1)CC2C3 (configuration not stated) | 0.0421 µM | 34.4 µM | 1.17 | 0.66 | 15 µM | 6.56 µM | 17.6 µM | 75.8 µM | 1810 |  | 
C=C(c1ccc(OC)c(F)c1)C1COC2(CCCC2)OO1 (configuration not stated) | 0.0111 µM | 29.3 µM | 5.75 | 0.63 | 9.7 µM | 18.5 µM | 55.8 µM | 33 µM | 3000 | 0.0864 µM | 7.8
C=C(c1cc(Cl)cc(Cl)c1OCc1ccccc1)C1COC(C)(C)OO1 (configuration not stated) | 0.04 µM | 39.5 µM | 3.16 | 4.78 | 58.4 µM | 64.1 µM | 25.5 µM | 31.6 µM | 811 | 0.0173 µM | 0.44
C=C(c1ccc(Cl)c(Cl)c1)C1COC(C)(C)OO1 (configuration not stated) | > 0.1 µM | > 100 µM |  |  | > 100 µM | 50.9 µM | > 100 µM |  |  |  | 
C=C(c1ccc(F)cc1F)C1COC2(CCCCC2)OO1 (configuration not stated) | > 0.1 µM | 36 µM | 11.5 |  | > 100 µM | 17.6 µM | 49.7 µM |  |  |  | 
C=C(c1ccc(OC)c(F)c1)C1COC2(CCCCC2)OO1 (configuration not stated) | > 0.1 µM | 13.1 µM | 5.77 | 1.17 | 6.53 µM | 15.4 µM | 37.7 µM |  |  |  | 
C=C(c1ccc(Cl)c(Cl)c1)C1COC2(CCCCC2)OO1 (configuration not stated) | > 0.1 µM | 83.5 µM | 3.07 | 2.37 | 12.8 µM | 83.5 µM | 39.4 µM |  |  |  | 
C=C(c1ccc(F)c(F)c1)C1COC2(CCCC2)OO1 (configuration not stated) | 0.0266 µM | 38.6 µM | 7.76 | 0.36 | 11.7 µM | 8.84 µM | 73.6 µM | 23.3 µM | 895 | 0.196 µM | 7.36
C=C(c1cc(Cl)cc(Cl)c1OCc1ccccc1)C1COC2(CCCCC2)OO1 (configuration not stated) | > 0.1 µM | > 100 µM |  |  | > 100 µM | > 100 µM | > 100 µM |  |  |  | 
C=C(c1ccc(Cl)c(Cl)c1)C1COC2(CCCC2)OO1 (configuration not stated) | > 0.1 µM | 62.6 µM | 10.9 | 0.13 | 4.68 µM | 8.45 µM | 50.9 µM |  |  |  | 
C=C(c1ccc(Cl)c(Cl)c1Cl)C1COC2(CCCCC2)OO1 (configuration not stated) | > 0.1 µM | 9.02 µM | 7.51 | 0.72 | 1.37 µM | 1.22 µM | 10.3 µM |  |  |  | 
C=C(c1cc(Cl)cc(Cl)c1OCc1ccccc1)C1COC2(OO1)C1CC3CC(C1)CC2C3 (configuration not stated) | 0.0224 µM | > 100 µM |  | 1.62 | 31.6 µM | > 100 µM | > 100 µM | 60.9 µM | 2770 | 0.043 µM | 1.93
C=C(c1ccc(Cl)cc1Cl)C1COC2(OO1)C1CC3CC(C1)CC2C3 (configuration not stated) | 0.0154 µM | 17.2 µM | 1.02 | 0.41 | 9.92 µM | 12.5 µM | 10.2 µM | 14.8 µM | 989 | 0.0462 µM | 2.99
